Consider 14 compounds from patent US20140329904A1, “INCREASING THE BIOAVAILABILITY OF HYDROXYCINNAMIC ACIDS” (NESTEC S.A., priority 2011, published 2014).

Experiment [1] has as its system sulfotransferases (SULTs) in human liver S9. Description: Inhibition of hydroxycinnamic acid sulfation by flavonoids and quercetin conjugates in human liver S9. It counts as biochemical. The procedure: (§1) The incubation mixture, in a final volume of 50 μL, consisted of 100 mM potassium phosphate buffer (pH 7.4), with 100 μM vitamin C, 100 μM PAPS and 1 mM DTT. Human liver S9 and intestinal S9 homogenates were used at 1 mg/mL and 0.4 mg/mL, respectively. The flavonoids were added from a 5 mM stock solution dissolved in DMSO, with final DMSO concentration equalized to 0.2%. Quercetin-3-glucuronide, quercetin-7-glucuronide and quercetin-3′-sulfate were dissolved in water. After a 15 min pre-incubation period, the reaction was initiated by adding 10 μM cinnamic acids and 25 μM dihydrocinnamic acids from a 50 mM stock solution in DMSO. To inhibit hydrolysis of quercetin glucuronides, in some analyses, 5 mM saccharolactone was added. After 30 min incubation in a 37° C. water bath, the reaction was stopped by addition of 10 μL ice-cold acetonitrile containing 500 mM HCl. Controls were treated under identical condition and consisted of samples with 0.2% DMSO (final concentration) added to the buffer. Samples were stored at −70° C. until analysis.
(§2) HPLC analyses were carried out using the Agilent 1200 series liquid chromatography system. For the analysis of caffeic acid, ferulic acid, isoferulic acid, dihydroferulic acid and their conjugates, chromatography was performed with a Zorbax XDB-C18 column (4.6×150 mm, 5 μm). The mobile phase consisted of 20 mM ammonium formate, pH 2.8 (A) and methanol (B). For the analysis of caffeic acid and conjugates, samples were eluted at 1 mL/min with 5% to 25% B in 20 min, followed by 80% B in 2 min and back to 5% B for 3 min. For the analysis of ferulic and isoferulic acid and their conjugates, the gradient was from 10% to 20% B in 10 min, to 60% B in 15 min, then set at 80% B for 2 min and back to 10% B for 3 min, at 1 mL/min. Dihydroferulic acid and conjugates analysis was carried out at 1 mL/min, from 10% to 20% B in 15 min, to 60% B in 10 min, up to 80% B for 2 min and finally to 10% B for 3 min. For dihydrocaffeic acid and conjugates, the analyses were performed with a Zorbax XDB-C18 column (4.6×50 mm, 1.8 μm) with 20 mM ammonium formate, pH 4.5 (A) and methanol (B) as the mobile phase. The gradient started at 3% (B) kept for 15 min, followed by an increase to 40% B in 5 min, and then returned to 3% B for 5 min. Samples were centrifuged and 25 μL of the supernatant were injected into the column. UV-detection carried out at 280 nm and 310 nm using photodiode array detector. Caffeic, ferulic and isoferulic acid were quantified at 310 nm, dihydroferulic acid and dihydrocaffeic acid at 280 nm.

The subject of experiment [2] is sulfotransferases (SULTs) in human intestinal S9. Briefly: Inhibition of hydroxycinnamic acid sulfation by flavonoids in human intestinal S9. As to conditions: human intestinal S9 0.4 mg/mL, 30 min, 37° C. It counts as biochemical. The procedure:
as §1, §2

In the next experiment the test system is HepG2 cells. Briefly: Inhibition of caffeic acid and ferulic acid sulfation in HepG2 cells. It counts as cell-based, human. As to conditions: caffeic and ferulic acids 10 μM, 4 h. The procedure:
HepG2 cells (ATCC) were routinely cultured in 75 cm^2 cell culture flasks at 37° C. under a humidified 5% CO2/O2 atmosphere. The culture media consisted of Eagle's Minimum Essential Medium (EMEM) media supplemented with 10% fetal bovine serum (Sigma-Aldrich) and 100 U/ml penicillin-streptomycin. All experiments were performed with HepG2 cells between passages 80 to 95. For metabolic studies, HepG2 cells were seeded into 12-well plates at a cell density of 2×10^5 per well. The cell monolayers were allowed to grow over 96 h before they were used for experiments. Hydroxycinnamic acid metabolism experiments were carried out in serum-free media with 100 μM vitamin C and 1.8 mM CaCl2, adjusted to pH 6.5. Cinnamic acids (10 μM) and dihydrocinnamic acids (25 μM) were added from a 50 mM stock solution in DMSO. […] 0.4 mL of hydroxycinnamic acids, with or without the inhibitors, were added to the HepG2 cells and incubated for 4 h at 37° C. The incubation media were then collected, acidified with 1 mM vitamin C and dried under vacuum. The residue was extracted by sonication for 5 min and vortex for 1 min, first with 500 μL acetonitrile, followed by 500 μL methanol. […]
HPLC analyses were carried out using the Agilent 1200 series liquid chromatography system. […] Caffeic, ferulic and isoferulic acid were quantified at 310 nm, dihydroferulic acid and dihydrocaffeic acid at 280 nm.

Where [3] appears, read: human liver S9 1 mg/mL, 10 μM caffeic acid, 30 min, 37° C., flavonoids, read-out: IC50 for the inhibition of sulfation of Caffeic acid.
Setting [4] is: human liver S9 1 mg/mL, 10 μM ferulic acid, 30 min, 37° C., flavonoids, read-out: IC50 for the inhibition of sulfation of Ferulic acid.
Setting [5] is: 10 μM caffeic acid, read-out: IC50 for the inhibition of sulfation of Caffeic acid.
The mark [6] stands for this setting: 10 μM ferulic acid, read-out: IC50 for the inhibition of sulfation of Ferulic acid.
Where [7] appears, read: liver S9, 10 μM caffeic acid, quercetin conjugates dissolved in water, read-out: IC50 for the inhibition of sulfation of Caffeic acid.
Setting [8] is: liver S9, 10 μM ferulic acid, quercetin conjugates dissolved in water, read-out: IC50 for the inhibition of sulfation of Ferulic acid.

In general, pIC50 refers to −log10 of the IC50, conventionally taken in molar units.

pIC50: −log10 of the molar value. Read-outs that look alike come from different tables or passages of the source.

Regarding `Oc1cc(O)c2c(c1)O[C@H](c1ccc(O)c(O)c1)[C@@H](O)C2` [(+)-Catechin], the pIC50 in experiment [1] (setting [3]) was 5.38; in experiment [1] (setting [4]) it was 5.36; in experiment [2] (setting [5]), 5.24; in experiment [2] (setting [6]), 5.15.

In the case of `Oc1cc(O)c2c(c1)O[C@H](c1ccc(O)c(O)c1)[C@H](O)C2` [(−)-Epicatechin], the pIC50 in experiment [1] (setting [3]) was 5.13; in experiment [1] (setting [4]) it was 5.14; in experiment [2] (setting [5]), 5.12; in experiment [2] (setting [6]), 4.96.

In the case of `O=c1cc(-c2ccc(O)cc2)oc2cc(O)cc(O)c12` [Apigenin], the pIC50 is 6.34 in experiment [1] (setting [3]), 6.06 in experiment [1] (setting [4]), 6.02 in experiment [2] (setting [5]) and 5.64 in experiment [2] (setting [6]).

Regarding `O=c1c(-c2ccc(O)cc2)coc2cc(O)ccc12` [Daidzein], the pIC50 was 6.19 in experiment [1] (setting [3]), 6.21 in experiment [1] (setting [4]), 6.14 in experiment [2] (setting [5]) and 5.64 in experiment [2] (setting [6]).

Take `O=c1c(-c2ccc(O)cc2)coc2cc(O)cc(O)c12` [Genistein]: the pIC50 in experiment [1] (setting [3]) is 6.23; in experiment [1] (setting [4]), 6.00; in experiment [2] (setting [5]), 6.11; in experiment [2] (setting [6]), 5.82.

`COc1ccc([C@@H]2CC(=O)c3c(O)cc(O)cc3O2)cc1O` [Hesperetin]: the pIC50 was 5.37 in experiment [1] (setting [3]), 5.28 in experiment [1] (setting [4]), 5.46 in experiment [2] (setting [5]) and 5.29 in experiment [2] (setting [6]).

Turning to `COc1cc(-c2oc3cc(O)cc(O)c3c(=O)c2O)ccc1O` [Isorhamnetin], the pIC50 in experiment [1] (setting [3]) was 5.70; in experiment [1] (setting [4]) it was 5.43; in experiment [2] (setting [5]), 5.36; in experiment [2] (setting [6]), 5.33.

As to `O=c1c(O)c(-c2ccc(O)cc2)oc2cc(O)cc(O)c12` [Kaempferol], the pIC50 was 6.04 in experiment [1] (setting [3]), 5.41 in experiment [1] (setting [4]), 5.60 in experiment [2] (setting [5]) and 5.42 in experiment [2] (setting [6]).

Take `O=c1cc(-c2ccc(O)c(O)c2)oc2cc(O)cc(O)c12` [Luteolin]: the “Inhibitory effect on hydroxycinnamic acids sulfation” value with HepG2 cells was “inhibitory effect”. In addition, the pIC50 in experiment [1] (setting [3]) was 7.10; in experiment [1] (setting [4]) it was 6.28; in experiment [2] (setting [5]), 5.89; in experiment [2] (setting [6]), 5.52.

Take `O=C(CCc1ccc(O)cc1)c1c(O)cc(O)cc1O` [Phloretin]: the pIC50 in experiment [1] (setting [3]) is 6.00; in experiment [1] (setting [4]), 6.00; in experiment [2] (setting [5]), 6.08; in experiment [2] (setting [6]), 5.64.

As for `O=C(O)[C@H]1O[C@@H](Oc2c(-c3ccc(O)c(O)c3)oc3cc(O)cc(O)c3c2=O)[C@H](O)[C@@H](O)[C@@H]1O` [Quercetin-3-glucuronide], the pIC50 in experiment [1] (setting [7]) was 4.96; in experiment [1] (setting [8]), 4.92.

In the case of `O=c1c(O)c(-c2ccc(O)c(OS(=O)(=O)O)c2)oc2cc(O)cc(O)c12` [Quercetin-3′-sulfate], the figures for the pIC50 in experiment [1] (setting [7]) and in experiment [1] (setting [8]) were 5.18 and 5.17, respectively.

`O=C(O)[C@H]1O[C@@H](Oc2cc(O)c3c(=O)c(O)c(-c4ccc(O)c(O)c4)oc3c2)[C@H](O)[C@@H](O)[C@@H]1O` [Quercetin-7-glucuronide]: the pIC50 was 5.02 in experiment [1] (setting [7]) and 5.10 in experiment [1] (setting [8]).

For the compound `O=c1c(O)c(-c2ccc(O)c(O)c2)oc2cc(O)cc(O)c12` [Quercetin], the “Inhibitory effect on hydroxycinnamic acids sulfation” value in the experiment with HepG2 cells is reported as “inhibitory effect”. The pIC50 in experiment [1] (setting [3]) is 6.39; in experiment [1] (setting [4]) it was 6.19; in experiment [2] (setting [5]), 5.38; in experiment [2] (setting [6]), 5.28. Further, the “Inhibition of sulfation of hydroxycinnamic acid, ranking in words” value in experiment [1] (liver S9) is reported as “most effective inhibitors”.
